Measured values published in PubChem BioAssay (NCI).
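1) Cells in 96-well plates. 2) Compound, 48 h, 5 concentrations. 3) Linear interpolation between surrounding doses. 4) Unreached endpoint = highest concentration. GI50 = concentration required for 50% inhibition of growth. The concentration for full growth arrest is given as TGI.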

How the values were obtained:
Experiment in all cases: NCI-60 cell line screen, 48 h
SW-620 colon = system: SW-620 colon
MOLT-4 leukemia = system: MOLT-4 leukemia
DU-145 prostate = system: DU-145 prostate
OVCAR-8 ovarian = system: OVCAR-8 ovarian
CAKI-1 renal = system: CAKI-1 renal
SNB-75 CNS = system: SNB-75 CNS
A498 renal = system: A498 renal
UO-31 renal = system: UO-31 renal
HCC-2998 colon = system: HCC-2998 colon
UACC-257 melanoma = system: UACC-257 melanoma

O=C(C=P(c1ccccc1)(c1ccccc1)c1ccccc1)c1cccc(-c2cccc([N+](=O)[O-])c2)c1
TGI (SW-620 colon): 26.8 µM | TGI (MOLT-4 leukemia): 5.37 µM | TGI (DU-145 prostate): > 100 µM | TGI (OVCAR-8 ovarian): > 100 µM | TGI (CAKI-1 renal): 6.26 µM | TGI (SNB-75 CNS): 7.62 µM | TGI (A498 renal): 7.87 µM | TGI (UO-31 renal): 20.3 µM | TGI (HCC-2998 colon): > 100 µM

Cc1nc2c(n1C)C(=O)c1nc(CBr)[nH]c(=O)c1C2=O
TGI (SW-620 colon): > 100 µM | TGI (MOLT-4 leukemia): > 100 µM | TGI (OVCAR-8 ovarian): > 100 µM | TGI (A498 renal): > 100 µM | TGI (UO-31 renal): > 100 µM

Nc1ccc(-c2cssc2=S)cc1
TGI (SW-620 colon): > 100 µM | TGI (MOLT-4 leukemia): > 100 µM | TGI (OVCAR-8 ovarian): > 100 µM | TGI (CAKI-1 renal): > 100 µM | TGI (UACC-257 melanoma): > 100 µM | TGI (UO-31 renal): > 100 µM | TGI (HCC-2998 colon): > 100 µM

COc1ccc2c(c1)CCN=C2Cc1cc(OC)c(OC)cc1CCCl
TGI (SW-620 colon): > 100 µM | TGI (MOLT-4 leukemia): > 100 µM | TGI (DU-145 prostate): > 100 µM | TGI (OVCAR-8 ovarian): > 100 µM | TGI (CAKI-1 renal): > 100 µM | TGI (SNB-75 CNS): > 100 µM | TGI (UACC-257 melanoma): > 100 µM | TGI (UO-31 renal): > 100 µM | TGI (HCC-2998 colon): > 100 µM

N#Cc1c(NC(=S)Nc2ccc(Cl)cc2)sc2c1CCCC2
TGI (SW-620 colon): > 100 µM | TGI (MOLT-4 leukemia): 33.8 µM | TGI (DU-145 prostate): > 100 µM | TGI (OVCAR-8 ovarian): > 100 µM | TGI (CAKI-1 renal): > 100 µM | TGI (SNB-75 CNS): > 100 µM | TGI (UACC-257 melanoma): > 100 µM | TGI (A498 renal): > 100 µM | TGI (UO-31 renal): > 100 µM | TGI (HCC-2998 colon): > 100 µM

OC1(c2ccc(Cl)cc2)c2c(ccc3c2OCO3)C2=NCCN21 (configuration not stated)
TGI (SW-620 colon): > 100 µM | TGI (MOLT-4 leukemia): > 100 µM | TGI (DU-145 prostate): > 100 µM | TGI (OVCAR-8 ovarian): > 100 µM | TGI (CAKI-1 renal): > 100 µM | TGI (SNB-75 CNS): 59 µM | TGI (UACC-257 melanoma): 37.2 µM | TGI (A498 renal): 48.2 µM | TGI (UO-31 renal): > 100 µM

COc1ccc(C2CC(c3cccc(Nc4ccncc4)c3)=NN2c2ccc(Cl)cc2)cc1 (configuration not stated)
GI50 (SW-620 colon): 1.61 µM | TGI (SW-620 colon): 3.19 µM | GI50 (MOLT-4 leukemia): 1.81 µM | TGI (MOLT-4 leukemia): 4.1 µM | GI50 (DU-145 prostate): 1.74 µM | TGI (DU-145 prostate): 3.17 µM | GI50 (CAKI-1 renal): 1.32 µM | TGI (CAKI-1 renal): 2.64 µM | GI50 (SNB-75 CNS): 1.41 µM | TGI (SNB-75 CNS): 3.01 µM | GI50 (UACC-257 melanoma): 1.95 µM | TGI (UACC-257 melanoma): 3.87 µM | GI50 (A498 renal): 1.52 µM | TGI (A498 renal): 8.16 µM | GI50 (UO-31 renal): 1.2 µM | TGI (UO-31 renal): 2.51 µM | GI50 (HCC-2998 colon): 1.74 µM | TGI (HCC-2998 colon): 3.22 µM

CC(=O)Oc1c(C)c2c(O)c3c1C1=C(OCOC1=C(C)C3=O)/C(C)=C\C(C)(O)C(O)C(C)C(O)C1C(=O)OC(C(C)C1O)C(C)(O)/C=C/C=C(C)C(=O)N2 (configuration not stated)
TGI (SW-620 colon): > 100 µM | TGI (MOLT-4 leukemia): > 100 µM | TGI (DU-145 prostate): > 100 µM | TGI (OVCAR-8 ovarian): > 100 µM | TGI (CAKI-1 renal): 64.5 µM | TGI (SNB-75 CNS): > 100 µM | TGI (UACC-257 melanoma): > 100 µM | TGI (A498 renal): > 100 µM | TGI (UO-31 renal): 46.5 µM | TGI (HCC-2998 colon): > 100 µM

O=C(N/N=C(/COc1ccc(Cl)cc1)N=Cc1cccnc1)c1ccncc1
TGI (SW-620 colon): > 100 µM | TGI (MOLT-4 leukemia): > 100 µM | TGI (DU-145 prostate): > 100 µM | TGI (OVCAR-8 ovarian): > 100 µM | TGI (CAKI-1 renal): > 100 µM | TGI (SNB-75 CNS): > 100 µM | TGI (UACC-257 melanoma): > 100 µM | TGI (A498 renal): > 100 µM | TGI (HCC-2998 colon): > 100 µM

COCO[C@@H]1C[C@H]2C(=O)N(COC)c3ccccc3C(=O)N2C1
TGI (SW-620 colon): > 100 µM | TGI (MOLT-4 leukemia): > 100 µM | TGI (DU-145 prostate): > 100 µM | TGI (OVCAR-8 ovarian): > 100 µM | TGI (CAKI-1 renal): > 100 µM | TGI (SNB-75 CNS): > 100 µM | TGI (UACC-257 melanoma): > 100 µM | TGI (A498 renal): > 100 µM | TGI (UO-31 renal): > 100 µM

CC(=O)c1c(SCCN2CCCC2)n(-c2ccccc2)c(=S)n(-c2ccccc2)c1=O
TGI (SW-620 colon): 6.76 µM | TGI (MOLT-4 leukemia): > 23.4 µM | TGI (DU-145 prostate): 8.85 µM | TGI (OVCAR-8 ovarian): 23.5 µM | TGI (CAKI-1 renal): 10.2 µM | TGI (SNB-75 CNS): 31.8 µM | TGI (UACC-257 melanoma): 9.17 µM | TGI (A498 renal): 27.7 µM | TGI (UO-31 renal): 2.73 µM | TGI (HCC-2998 colon): 11.9 µM

CS(=O)(=O)OC1CN2CCC1CC2 (configuration not stated)
TGI (SW-620 colon): > 100 µM | TGI (MOLT-4 leukemia): > 100 µM | TGI (DU-145 prostate): > 100 µM | TGI (OVCAR-8 ovarian): > 100 µM | TGI (CAKI-1 renal): > 100 µM | TGI (SNB-75 CNS): > 100 µM | TGI (UACC-257 melanoma): > 100 µM | TGI (A498 renal): > 100 µM | TGI (UO-31 renal): > 100 µM

C/C(=C\c1ccccc1)C(=O)NCc1ccc(C(=O)NCCC(C)C)cc1
TGI (SW-620 colon): > 100 µM | TGI (MOLT-4 leukemia): > 100 µM | TGI (DU-145 prostate): > 100 µM | TGI (OVCAR-8 ovarian): > 100 µM | TGI (CAKI-1 renal): > 100 µM | TGI (SNB-75 CNS): 89.4 µM | TGI (UACC-257 melanoma): > 100 µM | TGI (A498 renal): > 100 µM | TGI (UO-31 renal): > 100 µM | TGI (HCC-2998 colon): > 100 µM

CCN(CC)CCCC(C)Nc1ccnc2cc3ccccc3cc12 (configuration not stated)
TGI (SW-620 colon): > 100 µM | TGI (MOLT-4 leukemia): > 100 µM | TGI (DU-145 prostate): > 100 µM | TGI (OVCAR-8 ovarian): 54.2 µM | TGI (CAKI-1 renal): 42.2 µM | TGI (SNB-75 CNS): 20.1 µM | TGI (UACC-257 melanoma): 46.1 µM | TGI (A498 renal): 39.9 µM | TGI (UO-31 renal): 53.9 µM

Cc1cc2c(cc1Cl)SC(c1ccccc1)C(=O)NS2(=O)=O (configuration not stated)
TGI (SW-620 colon): > 100 µM | TGI (MOLT-4 leukemia): 60.7 µM | TGI (DU-145 prostate): > 100 µM | TGI (OVCAR-8 ovarian): > 100 µM | TGI (CAKI-1 renal): > 100 µM | TGI (SNB-75 CNS): 87 µM | TGI (UACC-257 melanoma): 88.5 µM | TGI (A498 renal): 75.5 µM | TGI (UO-31 renal): 75.1 µM | TGI (HCC-2998 colon): 70.8 µM

COC(=O)c1cc2c3c(cc(N(C)C)c2[nH]1)N(C(=O)c1cc2cc(OC)c(OC)c(OC)c2[nH]1)CC3CCl (configuration not stated)
TGI (MOLT-4 leukemia): 0.318 µM | TGI (DU-145 prostate): < 0.0025 µM | TGI (CAKI-1 renal): < 0.0025 µM | TGI (SNB-75 CNS): 0.00422 µM | TGI (A498 renal): 0.0292 µM | TGI (HCC-2998 colon): 0.0144 µM

CSc1nc(NC2OCC(OC(C)=O)C(OC(C)=O)C2OC(C)=O)c(N=C(C)C(C)=O)c(=O)[nH]1 (configuration not stated)
TGI (SW-620 colon): > 100 µM | TGI (MOLT-4 leukemia): > 100 µM | TGI (OVCAR-8 ovarian): > 100 µM | TGI (CAKI-1 renal): > 100 µM | TGI (SNB-75 CNS): > 100 µM | TGI (UACC-257 melanoma): > 100 µM | TGI (A498 renal): > 100 µM

C#CCn1ncc2c(SC)ncnc21
TGI (SW-620 colon): > 100 µM | TGI (MOLT-4 leukemia): > 100 µM | TGI (DU-145 prostate): > 100 µM | TGI (OVCAR-8 ovarian): > 100 µM | TGI (CAKI-1 renal): > 100 µM | TGI (SNB-75 CNS): 97.8 µM | TGI (UACC-257 melanoma): > 100 µM | TGI (A498 renal): > 100 µM | TGI (UO-31 renal): > 100 µM | TGI (HCC-2998 colon): > 100 µM

Cc1cccc2cc3c(ccc4ccccc43)c[n+]12
TGI (SW-620 colon): > 100 µM | TGI (MOLT-4 leukemia): > 100 µM | TGI (DU-145 prostate): > 100 µM | TGI (OVCAR-8 ovarian): > 100 µM | TGI (SNB-75 CNS): 21.8 µM | TGI (UACC-257 melanoma): 37.9 µM | TGI (UO-31 renal): > 100 µM | TGI (HCC-2998 colon): 42.7 µM

CCOC(=O)C[C@@H]1C2(C=C[C@@]13CO3)OCC(C)(C)CO2
TGI (SW-620 colon): > 100 µM | TGI (MOLT-4 leukemia): > 100 µM | TGI (DU-145 prostate): > 100 µM | TGI (OVCAR-8 ovarian): > 100 µM | TGI (CAKI-1 renal): > 100 µM | TGI (SNB-75 CNS): > 100 µM | TGI (UACC-257 melanoma): > 100 µM | TGI (A498 renal): > 100 µM | TGI (UO-31 renal): > 100 µM | TGI (HCC-2998 colon): > 100 µM

N#Cc1c2c(c(Nc3cccc(C(F)(F)F)c3)n3c1nc1ccccc13)CCC2
TGI (SW-620 colon): > 100 µM | TGI (MOLT-4 leukemia): > 100 µM | TGI (DU-145 prostate): > 100 µM | TGI (OVCAR-8 ovarian): > 100 µM | TGI (CAKI-1 renal): > 100 µM | TGI (SNB-75 CNS): > 100 µM | TGI (UACC-257 melanoma): > 100 µM | TGI (A498 renal): > 100 µM
